Target: T1, recombinant hFAP (Homo sapiens, UniProt Q12884)
T1 sequence (Q12884 26-760 limits assumed): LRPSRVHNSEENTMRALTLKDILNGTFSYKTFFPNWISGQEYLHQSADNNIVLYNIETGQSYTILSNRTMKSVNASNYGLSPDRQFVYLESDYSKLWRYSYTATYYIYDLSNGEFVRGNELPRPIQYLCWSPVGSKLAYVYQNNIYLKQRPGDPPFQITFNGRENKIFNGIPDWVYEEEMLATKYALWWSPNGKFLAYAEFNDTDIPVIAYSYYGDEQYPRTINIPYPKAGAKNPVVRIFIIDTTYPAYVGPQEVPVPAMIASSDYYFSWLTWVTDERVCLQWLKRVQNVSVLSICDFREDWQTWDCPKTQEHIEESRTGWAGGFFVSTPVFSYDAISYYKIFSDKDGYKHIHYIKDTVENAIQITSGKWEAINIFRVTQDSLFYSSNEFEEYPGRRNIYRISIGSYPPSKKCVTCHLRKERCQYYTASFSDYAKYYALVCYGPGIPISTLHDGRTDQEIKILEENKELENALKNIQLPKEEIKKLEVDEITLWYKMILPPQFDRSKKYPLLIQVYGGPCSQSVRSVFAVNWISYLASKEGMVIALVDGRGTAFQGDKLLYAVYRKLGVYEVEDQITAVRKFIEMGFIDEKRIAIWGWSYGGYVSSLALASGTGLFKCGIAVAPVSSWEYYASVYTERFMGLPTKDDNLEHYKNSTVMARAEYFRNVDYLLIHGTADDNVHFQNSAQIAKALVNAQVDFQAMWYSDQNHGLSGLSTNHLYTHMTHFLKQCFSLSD
Experiment: hFAP inhibition assay (Z-Gly-Pro-AMC substrate)
Assay type: biochemical
Experimental: (§1) Enzymatic activity of hFAP on the Z-Gly-Pro-AMC substrate was measured at room temperature on a microtiter plate reader, monitoring the fluorescence at an excitation wavelength of 360 nm and an emission wavelength of 465 nm. The reaction mixture contained substrate (20 μM), protein (66 μM, constant), assay buffer (50 mM Tris, 100 mM NaCl, and 1 mM EDTA, pH=7.4), and inhibitors with serial dilution from 167 nM to 80 fM, 1:2 in a total volume of 20 μL. Experiments were performed in triplicate, and the mean fluorescence values were fitted using Prism 7. The value is defined as the concentration of inhibitor required to reduce the enzyme activity by 50% after addition of the substrate [FIG. 1 and FIG. 8].
According to the same procedure, further comparative inhibition assays with trimeric binders having inter alia different lengths of linker group B and/or different payload groups C were performed with compounds Tri-ESV6-ValCit-MMAE (14), Tri-ESV6-linker-DOTAGA (13) and diastereoisomers of Tri-ESV6-DOTAGA (11, 12) [FIG. 18]. Comparative hFAP inhibition assays with tetravalent binders 10 and 29 were also performed [FIG. 20].
as §1, with “substrate.” for “substrate [FIG. 1 and FIG. 8].”
as §1, with “e) Inhibition assay with Tri-ESV6-DOTAGA, Tetra-ESV6-DOTAGA, Hexa-ESV6-DOTAGA, Octa-ESV6-DOTAGA, ESV6-L-DOTAGA and BI-ESV6-L-DOTAGA. Enzymatic” for “Enzymatic”, “substrate.” for “substrate [FIG. 1 and FIG. 8].”

- IC50 (Z-Gly-Pro-AMC 20 μM, protein 66 μM, pH 7.4, room temperature): 0.012 nM
- lower IC50 compared to Tri-ESV6-PEG12-DOTAGA (vs Tri-ESV6-PEG12-DOTAGA): ~ 1000 fold
- improvement in IC50 as compared to Bi-ESV6-DOTAGA (vs bivalent Bi-ESV6-DOTAGA): 10 fold
- improvement in IC50 as compared to ESV6-DOTAGA (vs monovalent ESV6-DOTAGA): 43 fold
Structure (SMILES): N#C[C@@H]1CC(F)(F)CN1C(=O)CNC(=O)c1ccnc2c(NC(=O)CCC(=O)NCCNC(=O)CCOCC(COCCC(=O)NCCNC(=O)CCC(=O)Nc3cccc4c(C(=O)NCC(=O)N5CC(F)(F)C[C@H]5C#N)ccnc34)(COCCC(=O)NCCNC(=O)CCC(=O)Nc3cccc4c(C(=O)NCC(=O)N5CC(F)(F)C[C@H]5C#N)ccnc34)NC(=O)CCC(C(=O)O)N3CCN(CC(=O)O)CCN(CC(=O)O)CCN(CC(=O)O)CC3)cccc12 (stereo partly drawn) [Tri-ESV6-DOTAGA, 2,2′,2″-(10-(19-carboxy-1-((4-((2-((S)-2-cyano-4,4-difluoropyrrolidin-1-yl)-2-oxoethyl)carbamoyl)quinolin-8-yl)amino)-14,14-bis((3-((2-(4-((4-((2-((S)-2-cyano-4,4-difluoropyrrolidin-1-yl)-2-oxoethyl)carbamoyl)quinolin-8-yl)amino)-4-oxobutanamido)ethyl)amino)-3-oxopropoxy)methyl)-1,4,9,16-tetraoxo-12-oxa-5,8,15-triazanonadecan-19-yl)-1,4,7,10-tetraazacyclododecane-1,4,7-triyl)triacetic acid]
- IC50 / inhibitory activity, comparison in words (recombinant hFAP): remarkably lower IC50 compared to ESV6-DOTAGA, Bi-ESV6-DOTAGA and FAP-2286

From patent US20260364214A1, “MULTIVALENT FIBROBLAST ACTIVATION PROTEIN LIGANDS FOR TARGETED DELIVERY APPLICATIONS” (Philochem AG, priority 2022, published 2026)
